Test results as given in US8337851B2, “Methods of monitoring the efficacy of anti-CD40 antibodies in treating a subject for a CD40-expressing cancer” (Novartis AG, priority 2005, dated 2012).
Entries after “also recorded” stand apart in the source; their conditions may differ.

Experiments:
primary B-CLL cells = experiment: Western blot of cPARP, Mcl-1, Bcl-xl in primary B-CLL cells; type: cell-based, human; conditions: 10 μg/ml with rhsCD40L
Experimental: Whole cell lysates were prepared in RIPA lysis buffer (1% Nonidet P-40, 0.5% sodium deoxycholate, 0.1% Sodium dodecylsulfate in 1× phosphate buffered saline, pH 7.2). 10-20 μg of protein per sample were resolved on a 10% Tris-Glycine gel and transferred to nitrocellulose membranes, and membranes were probed using mAbs specific to human cPARP, Mcl-1, or Bcl-xl. The membranes were stripped and re-probed for β-actin and developed using ECL.

[1] = system: IM-9 tumor cells (a human multiple myeloma cell line); experiment: Staged orthotopic IM-9 xenograft survival model; type: in vivo, SCID mice; conditions: 0.1, 1 or 10 mg/kg i.p. once a week from 7 days after implantation
Experimental: SCID mice were inoculated subcutaneously with IM-9 tumor cells (a human multiple myeloma cell line expressing both CD40 and CD20) in 50% […]™ at 5×10^6 cells per mouse. In unstaged models, treatment was initiated one day after tumor implantation. […] Alternatively, tumor-bearing mice were injected with bortezomib at 0.5 mg/kg or 1 mg/kg intravenously once a week. Data were analyzed using the log-rank test.
In staged models, treatment was initiated 7 days after tumor cell implantation. […] Alternatively, tumor-bearing mice were injected with bortezomib at 0.5 mg/kg intravenously. Data were analyzed using the log-rank test.

[2] = system: human lymphocytes from normal subjects; experiment: Proliferation of human lymphocytes; type: cell-based
[3] = system: B-CLL cells from patients; experiment: RT-PCR timecourse of transcripts in B-CLL cells; type: cell-based, human; conditions: 10 μg/mL with sCD40L, vs IgG1
Experimental: Cell pellets were collected at 0 hr (no CD40L), 1, 4 and 24 hr and lysed simultaneously at the end. RNA was isolated using the RNeasy kit, and cDNA was prepared using the ABI RT kit. Two-step RT-PCR was done with the genes shown in two separate reactions, based on TM of each set of oligos.

[4] = system: CLL cells obtained from patients with CLL; experiment: CD40L-induced production of VEGF in CLL cells; type: cell-based, human
Source text: In another experiment, CD40L-induced production of VEGF in normal B cells and CLL cells obtained from patients with CLL is examined in a manner similar to that described above.

[5] = system: IM-9 tumor cells (a human multiple myeloma cell line); experiment: Unstaged orthotopic IM-9 xenograft conditional survival model; type: in vivo, SCID mice; conditions: 0.1, 1 or 10 mg/kg i.p. once a week from one day after implantation
CLL cells = experiment: CD40L-induced cytokine secretion by CLL cells (Meso Scale Discovery); type: cell-based, human; conditions: CLL #1; 10 μg/ml, 24 hours; preliminary, n=1
Experimental: Cells (1×10^5 cells per well) were cultured in a 96-well plate in the presence or absence of CD40L (CD40 transfected, formaldehyde fixed CHO cells, 2×10^5 per well). […] Production of hIL-6, hIL-8, hIL-10, hTNF-α, hGM-CSF, hIL-1b, hIL-12p70, MCP-1, and MIP-1β was measured by Meso Scale Discovery® multi-array system (Meso Scale Discovery, Gaithersburg, Md.).

normal human B cells = experiment: Western blot of survival and signaling markers in normal human B cells; type: cell-based; conditions: 10 μg/ml, 24 hr, 2 μg/ml rhsCD40L, vs hIgG1
Source text: Cells were lysed and whole cell lysates resolved by SDS-PAGE and Western blotting using antibodies specific to human cPARP, Mcl-1, Bcl-xl, p-Akt, and p-p38 MAPK. All membranes were stripped and re-probed for either β-actin or AKT or p38 MAPK total protein, as appropriate.

B-CLL cells [6] = experiment: Western blot of p-Akt, p-p38 MAPK, p-IKK α/β, p-ERK in B-CLL cells; type: cell-based, human
Experimental: To detect p38 MAPK, cells were cultured for 3 hr using the previously described conditions, with rhsCD40L being added in the last 20 min of incubation. Cells were processed as described above for data shown in FIG. 25. mAbs specific to human p-Akt and p-p38 MAPK were used to probe the resultant membranes, which were re-probed for AKT and p38 total protein, respectively.
Resultant membranes were probed using mAbs specific to human p-IKK α/β and p-ERK.

B-CLL cells [7] = experiment: cPARP flow cytometry of CLL patient PBMCs; type: cell-based, human; conditions: 24 hours, 10 μg/ml
Experimental: [formula] cPARP analysis by flow cytometry was performed after 24 hours in culture. Cells were treated with FACSLysis buffer (BD Biosciences) and frozen. After fixation in 1% formaldehyde for 45 min, cells were washed and incubated with PE-conjugated mouse anti-human CD19 for 30 min at room temperature (RT). Cells were then permeabilized using 70% ethanol on ice for 30 min and stained for 30 min at RT with rabbit anti-human cPARP antibody or isotype control rabbit IgG along with PerCP-Cy5.5-labeled mouse anti-human CD5. This was followed by incubation with goat anti-rabbit IgG-AlexaFluor 647 for 30 min at RT before fixing with 1% formaldehyde and analyzing by flow cytometry. Percent blockade was calculated as follows: […]

[8] = system: primary cancer cells from NHL patients; experiment: ADCC against primary cancer cells; type: cell-based, human; conditions: in vitro
Source text: 4, 2003, Nov. 26, 2003, and Apr. 27, 2004, and assigned U.S. Patent Application Nos. 60/517,337, 60/525,579, and 60/565,710, respectively, and International Patent Application No. PCT/US2004/037152, also entitled “Antagonist, Anti-CD40 Monoclonal Antibodies and Methods for Their Use,” filed Nov. 4, 2004; the contents of each of which are herein incorporated by reference in their entirety.

[9] = 3 hr culture, rhsCD40L in the last 20 min

CHIR-12.12: fully human anti-CD40 monoclonal antibody of the IgG1 isotype from hybridoma cell line 153.8E2.D10.D6.12.12 (ATCC PTA-5543)
cPARP levels and Mcl-1 and Bcl-xl expression (Western blot) (primary B-CLL cells): blocked the CD40L-mediated decrease of cPARP levels and CD40L-mediated increase of Mcl-1 and Bcl-xl expression | survival of tumor-bearing mice [1]: prolonged survival of tumor-bearing mice | CD40L-induced lymphocyte proliferation [2]: inhibits CD40L-induced lymphocyte proliferation | induction of lymphocyte proliferation (agonist activity) ([2]; antibody alone): do not induce strong proliferation of human lymphocytes from normal subjects; also recorded: does not induce the proliferation of human peripheral blood lymphocytes | RNA expression of CD40, CD40L, VEGF, TRAF2 and TRAF3 ([3]; 1, 4, 24 hr): inhibition of RNA expression | RNA expression of IL-6 [3]: no transcriptional changes | RNA expression of TRAF6 and Mcl-1 [3]: minor down-regulation | CD40L-induced production of VEGF [4]: inhibit CD40L-induced production of VEGF | survival of tumor-bearing mice [5]: prolonged the survival of tumor-bearing mice | inhibition of CD40-ligand-induced MCP-1 secretion (CLL cells): 34.8 % inhibition | inhibition of CD40-ligand-induced hGM-CSF secretion (CLL cells): 86.5 % inhibition | inhibition of CD40-ligand-induced hIL-8 secretion (CLL cells): 91.0 % inhibition | inhibition of CD40-ligand-induced hIL-10 secretion (CLL cells): 99.6 % inhibition | inhibition of CD40-ligand-induced hTNF-α secretion (CLL cells): 89.6 % inhibition | CD40L-mediated effects on cPARP, Mcl-1, Bcl-xl, p-Akt, p-p38 (normal human B cells): blocked these CD40L-mediated effects on normal B cells | CD40L-induced phosphorylation of IKK α/β and ERK ½ (B-CLL cells [6]; [9]): inhibited the CD40L-induced phosphorylation of IKK α/β and ERK ½ | rhsCD40L-enhanced phosphorylation of p38 MAPK (B-CLL cells [6]; [9]): blocked this effect | CD40L activation of the AKT pathway (p-Akt) (B-CLL cells [6]; in a number of samples): blocked this effect | blockade of CD40L-promoted survival (B-CLL cells [7]): in each case, these effects were blocked | killing of primary cancer cells by ADCC [8]: kill primary cancer cells from NHL patients by ADCC
